Measured values: patent US20240317721A1, “PYRAZOLYL DERIVATIVES AS INHIBITORS OF THE KRAS MUTANT PROTEIN” (NOVARTIS AG, priority 2021, published 2024)

What follows are compounds tested against KRasG12C (M1-K169, biotinylated on the N-terminus) (Homo sapiens (Human), UniProt P01116, G12C) (assay: Covalent competition assay: scintillation proximity assay (SPA) quantifying covalent modification of KRASG12C). Conditions: competition with radiolabeled covalent probe (Compound B/Compound A), 2 hours incubation, 10 nM KRasG12C.
Assay type: binding
In short: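 Scintillation proximity readout after streptavidin bead capture (30 min) of biotinylated KRasG12C(M1-K169):GDP, 10 nM final, which was covalently labelled over 2 h by 25 nM radio-probe plus 475 nM cold probe unless blocked by compound.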

Compound | IC50 [nM]
C=CC(=O)N1CC2(CC(n3nc(N4CCN(C[C@@H]5COCCO5)C[C@]4(C)CC)c(-c4c(Cl)c(C)cc5[nH]ncc45)c3C)C2)C1 (single isomer, unassigned) [Example 173a] | 2900
C=CC(=O)N1CC2(CC(n3nc(N4CCC(N5CCOCC5)CC4(C)C)c(-c4c(Cl)c(C)cc5[nH]ncc45)c3C)C2)C1 (single isomer, unassigned) [Example 35b, 1-(6-(4-(5-chloro-6-methyl-1H-indazol-4-yl)-3-(2,2-dimethyl-4-morpholinopiperidin-1-yl)-5-methyl-1H-pyrazol-1-yl)-2-azaspiro[3.3]heptan-2-yl)prop-2-en-1-one] | 1500
C=CC(=O)N1CC2(CC(n3nc(N4CCN(C(C)(C)C(=O)OC)CC45CCC5)c(-c4c(Cl)c(C)cc5[nH]ncc45)c3C)C2)C1 (single isomer, unassigned) [Example 180b, methyl 2-(5-(1-(2-acryloyl-2-azaspiro[3.3]heptan-6-yl)-4-(5-chloro-6-methyl-1H-indazol-4-yl)-5-methyl-1H-pyrazol-3-yl)-5,8-diazaspiro[3.5]nonan-8-yl)-2-methylpropanoate] | 17
C=CC(=O)N1CC2(CC(n3nc(N4CCC(N5CCOCC5)CC4(C)C)c(-c4c(Cl)c(C)cc5[nH]ncc45)c3C)C2)C1 (single isomer, unassigned) [Example 34b, 1-(6-(4-(5-chloro-6-methyl-1H-indazol-4-yl)-3-(2,2-dimethyl-4-morpholinopiperidin-1-yl)-5-methyl-1H-pyrazol-1-yl)-2-azaspiro[3.3]heptan-2-yl)prop-2-en-1-one] | 13
C=CC(=O)N1CC2(CC(n3nc(N4CCN(CC(C)(C)O)CC45CCC5)c(-c4c(Cl)c(C)cc5[nH]ncc45)c3C)C2)C1 (single isomer, unassigned) [Example 160a, 1-(6-(4-(5-Chloro-6-methyl-1H-indazol-4-yl)-3-(8-(2-hydroxy-2-methylpropyl)-5,8-diazaspiro[3.5]nonan-5-yl)-5-methyl-1H-pyrazol-1-yl)-2-azaspiro[3.3]heptan-2-yl)prop-2-en-1-one] | > 5000
C=CC(=O)N1CC2(CC(n3nc(N4CCN(C5COC5)C[C@@]4(C)COC)c(-c4c(Cl)c(C)cc5[nH]ncc45)c3C)C2)C1 (single isomer, unassigned) [Example 148b] | 295
C=CC(=O)N1CC2(CC(n3nc(N4CCC(N5CCOCC5)CC4(C)C)c(-c4c(Cl)c(C)cc5[nH]ncc45)c3C)C2)C1 (single isomer, unassigned) [Example 34a, 1-(6-(4-(5-chloro-6-methyl-1H-indazol-4-yl)-3-(2,2-dimethyl-4-morpholinopiperidin-1-yl)-5-methyl-1H-pyrazol-1-yl)-2-azaspiro[3.3]heptan-2-yl)prop-2-en-1-one] | 3800
C=CC(=O)N1CC2(CC(n3nc(N4CCN(C[C@H]5COCCO5)CC45CCC5)c(-c4c(Cl)c(C)cc5[nH]ncc45)c3C)C2)C1 (single isomer, unassigned) [Example 189a] | > 5000
C=CC(=O)N1CC2(CC(n3nc(N4CCN(C[C@@H]5COCCO5)C[C@]4(C)CC)c(-c4c(Cl)c(C)cc5[nH]ncc45)c3C#N)C2)C1 [Example 176, 3-((S)-4-(((R)-1,4-dioxan-2-yl)methyl)-2-ethyl-2-methylpiperazin-1-yl)-1-(2-acryloyl-2-azaspiro[3.3]heptan-6-yl)-4-(5-chloro-6-methyl-1H-indazol-4-yl)-1H-pyrazole-5-carbonitrile] | < 5
C=CC(=O)N1CC2(CC(n3nc(N4CCN(CCO)CC45CCC5)c(-c4c(Cl)c(C)cc5[nH]ncc45)c3C)C2)C1 (single isomer, unassigned) [Example 162b, 1-(6-(4-(5-chloro-6-methyl-1H-indazol-4-yl)-3-(8-(2-hydroxyethyl)-5,8-diazaspiro[3.5]nonan-5-yl)-5-methyl-1H-pyrazol-1-yl)-2-azaspiro[3.3]heptan-2-yl)prop-2-en-1-one] | 27
C=CC(=O)N1CC2(CC(n3nc(N4CCN(C[C@@H]5COCCO5)C[C@]4(C)CC)c(-c4c(Cl)c(C)cc5[nH]ncc45)c3C)C2)C1 (single isomer, unassigned) [Example 173b] | 5
C=CC(=O)N1CC2(CC(n3nc(N4CCN(C5COC5)CC45CCC5)c(-c4c(C)c(O)cc(C)c4Cl)c3C)C2)C1 (single isomer, unassigned) [Example 49b, 1-(6-(4-(2-chloro-5-hydroxy-3,6-dimethylphenyl)-5-methyl-3-(8-(oxetan-3-yl)-5,8-diazaspiro[3.5]nonan-5-yl)-1H-pyrazol-1-yl)-2-azaspiro[3.3]heptan-2-yl)prop-2-en-1-one] | > 5000
C=CC(=O)N1CC2(CC(n3nc(N4CCN(C5COC5)CC45CCC5)c(-c4c(Cl)c(C)cc5[nH]ncc45)c3C)C2)C1 (single isomer, unassigned) [Example 54b, 1-(6-(4-(5-Chloro-6-methyl-1H-indazol-4-yl)-5-methyl-3-(8-(oxetan-3-yl)-5,8-diazaspiro[3.5]nonan-5-yl)-1H-pyrazol-1-yl)-2-azaspiro[3.3]heptan-2-yl)prop-2-en-1-one] | 15
C=CC(=O)N1CC2(CC(n3nc(N4CCC(C(=O)N(C)C)CC4(C)C)c(-c4c(Cl)c(C)cc5[nH]ncc45)c3C)C2)C1 (stereo not drawn) [Example 98a, 1-(1-(2-acryloyl-2-azaspiro[3.3]heptan-6-yl)-4-(5-chloro-6-methyl-1H-indazol-4-yl)-5-methyl-1H-pyrazol-3-yl)-N,N,2,2-tetramethylpiperidine-4-carboxamide] | > 5000
C=CC(=O)N1CC2(CC(n3nc(N4CCC(N(C)C(=O)COC)CC4(C)C)c(-c4c(Cl)c(C)cc5[nH]ncc45)c3C)C2)C1 (single isomer, unassigned) [Example 97a, N-(1-(1-(2-acryloyl-2-azaspiro[3.3]heptan-6-yl)-4-(5-chloro-6-methyl-1H-indazol-4-yl)-5-methyl-1H-pyrazol-3-yl)-2,2-dimethylpiperidin-4-yl)-2-methoxy-N-methylacetamide] | 300
C=CC(=O)N1CC2(CC(n3nc(N4CCn5ccnc5C4(C)C)c(-c4c(Cl)c(C)cc5[nH]ncc45)c3C)C2)C1 (single isomer, unassigned) [Example 23b, 1-(6-(4-(5-chloro-6-methyl-1H-indazol-4-yl)-3-(8,8-dimethyl-5,6-dihydroimidazo[1,2-a]pyrazin-7(8H)-yl)-5-methyl-1H-pyrazol-1-yl)-2-azaspiro[3.3]heptan-2-yl)prop-2-en-1-one] | 634
C=CC(=O)N1CC2(CC(n3nc(N4CCN(C5COC5)CC45CCC5)c(-c4c(Cl)c(Cl)cc5[nH]ncc45)c3C)C2)C1 (single isomer, unassigned) [Example 72a] | 3100
C=CC(=O)N1CC2(CC(n3nc(N4CCC(N5C[C@H]6C[C@@H]5CN6S(C)(=O)=O)CC4(C)C)c(-c4c(Cl)c(Cl)cc5[nH]ncc45)c3C)C2)C1 (single isomer, unassigned) [Example 212b] | 12

Now from value to compound:

IC50 [nM] | Compound
8 | C=CC(=O)N1CC2(CC(n3nc(N4CCC(CN5CCN(C)CC5=O)CC4(C)C)c(-c4c(Cl)c(Cl)cc5[nH]ncc45)c3C)C2)C1 (single isomer, unassigned) [Example 240b, 1-((1-(1-(2-acryloyl-2-azaspiro[3.3]heptan-6-yl)-4-(5,6-dichloro-1H-indazol-4-yl)-5-methyl-1H-pyrazol-3-yl)-2,2-dimethylpiperidin-4-yl)methyl)-4-methylpiperazin-2-one]
932 | C=CC(=O)N1CC2(CC(n3nc(N4CCC(CN5CCS(=O)(=O)CC5)CC4(C)C)c(-c4c(Cl)c(Cl)cc5[nH]ncc45)c3C)C2)C1 (single isomer, unassigned) [Example 235a, 1-(6-(4-(5,6-dichloro-1H-indazol-4-yl)-3-(4-((1,1-dioxidothiomorpholino)methyl)-2,2-dimethylpiperidin-1-yl)-5-methyl-1H-pyrazol-1-yl)-2-azaspiro[3.3]heptan-2-yl)prop-2-en-1-one]
1400 | C=CC(=O)N1CC2(CC(n3nc(N4CC[C@@H](CN5CCOCC5)CC4(C)C)c(-c4c(Cl)c(C)cc5[nH]nc(N)c45)c3C)C2)C1 (single isomer, unassigned) [Example 242b]
> 5000 | C=CC(=O)N1CC2(CC(n3nc(N4CC[C@@H](CN5CCOCC56COC6)CC4(C)C)c(-c4c(C)c(Cl)cc5[nH]ncc45)c3C)C2)C1 (single isomer, unassigned) [Example 302a]
9 | C=CC(=O)N1CC2(CC(n3nc(N4CC[C@@H](CN5CCN(CCO)C(=O)C5)CC4(C)C)c(-c4c(Cl)c(Cl)cc5[nH]ncc45)c3C)C2)C1 (single isomer, unassigned) [Example 251b]
2700 | C=CC(=O)N1CC2(CC(n3nc(N4CC[C@@H](CN5CCN(C(C)=O)CC5)CC4(C)C)c(-c4c(Cl)c(Cl)cc5[nH]ncc45)c3C)C2)C1 (single isomer, unassigned) [Example 319a]
1600 | C=CC(=O)N1CC2(CC(n3nc(N4CC[C@@H](CN5CC6(C5)CN(C)C(=O)O6)CC4(C)C)c(-c4c(Cl)c(Cl)cc5[nH]ncc45)c3C)C2)C1 (single isomer, unassigned) [Example 284a]
3800 | C=CC(=O)N1CC2(CC(n3nc(N4CC[C@@H](CN5CCN6CCOC[C@@H]6C5)CC4(C)C)c(-c4c(Cl)c(Cl)cc5[nH]ncc45)c3C)C2)C1 (single isomer, unassigned) [Example 279a]
4500 | C=CC(=O)N1CC2(CC(n3nc(N4CC[C@@H](CN5CC6C5CCN6C5COC5)CC4(C)C)c(-c4c(Cl)c(Cl)cc5[nH]ncc45)c3C)C2)C1 (single isomer, unassigned) [Example 277a, 1-(6-(4-(5,6-dichloro-1H-indazol-4-yl)-3-((R)-2,2-dimethyl-4-(((1S*,5S*)-2-(oxetan-3-yl)-2,6-diazabicyclo[3.2.0]heptan-6-yl)methyl)piperidin-1-yl)-5-methyl-1H-pyrazol-1-yl)-2-azaspiro[3.3]heptan-2-yl)prop-2-en-1-one]
